From US8003602B2 (priority 2006, dated 2011)
Values after ≈ are worked out from the molar mass of the structure shown.

Columns and labels:
E. faecium (O2-D3IP1) = test: MIC, Macro-broth dilution method; type: cell-based, Enterococcus faecium
Excerpt: (§1) The in-vitro potency was established by minimum inhibitory concentration (MIC) determinations of the compound PM181104 against bacterial strains, by using the Macro-broth dilution method as per National Committee for Clinical Laboratory Standards (2000) guidelines [Journal of Anti-microbial Chemotherapy, 2002, 50, 125-128 (Cross Reference 8: Methods for Dilution Antimicrobial Susceptibility Tests for Bacteria that Grow Aerobically-Fifth Edition: Approved Standard M7-A5. NCCLS, Wayne, Pa., USA)]. Unless stated otherwise, Mueller-Hinton broth was used as nutrient medium for the assay. Linezolid (manufactured by Glenmark Pharma Ltd; Batch no: K2005028) was used as known standard in all in-vitro experiments. For preparation of the stock solution the compound PM181104 was dissolved in chloroform (5% of the total required volume) and diluted using methanol (95% of the total required volume).

E. faecium (VR-1) = test: MIC, Macro-broth dilution method; type: cell-based, Enterococcus faecium
Excerpt: as §1

E. faecium D 18F = test: MIC, Macro-broth dilution method; type: cell-based, Enterococcus faecium
Excerpt: as §1

B. megaterium FH 1127 = test: MIC, Macro-broth dilution method; type: cell-based, Bacillus megaterium
Excerpt: as §1

[1] = test system: methicillin resistant Staphylococcus aureus E710 (MRSA); test: Systemic infection model (septicemia); type: in vivo, Balb/C mice; details: mice infected intraperitoneally with MRSA E710, administered intravenously immediately after infection
Excerpt: (§2) The in-vivo potency was established by protection dose (PD) determinations of the compound PM181104 for its antibiotic activity in three animal models using either male or female Balb/C mice.
(§3) The models used were the general purpose efficacy testing models and organ/tissue specific efficacy testing models. The general purpose efficacy testing models used were systemic infection model (septicemia), and localized infection model (neutropenic thigh model). The Organ/Tissue specific infection models used for efficacy testing were kidney, lung infection, and skin abscess model.
The animals were infected intraperitoneally with ˜10^8 to 10^9 cfu of an overnight grown culture of methicillin resistant Staphylococcus aureus E710 (MRSA), suspended in normal saline (0.85% sodium chloride). PM181104 solution was prepared in cremophor-ethanol formulation as described in example 14. The solution was administered intravenously at 5 mg, 2.5 mg and 1.25 mg/kg doses, immediately after infection. Each experimental group consisted of ten animals.

B. cereus = test: MIC, Macro-broth dilution method; type: cell-based, Bacillus cereus
Excerpt: as §1

S. aureus E-710 = test: Neutropenic thigh model; type: in vivo, Balb/C mice; details: 5 mg/kg intravenously two hours post infection, 6 hour time point
Excerpt: as §2, §3
Each experimental group consisted of six animals. PM181104 was prepared in cremophor-ethanol formulation as described in example 14.

[2] = test system: Staphylococcus aureus subsp. aureus ATCC 33591; type: cell-based; details: S. aureus MRSA ATCC 33591
Excerpt: as §1

E. faecalis, ATCC 51299 = type: cell-based
Excerpt: as §1

E. faecalis ATCC 51575 = type: cell-based
Excerpt: as §1

[3] = test system: Enterococcus faecium ATCC 47077; test: Kidney infection model; type: in vivo, Balb/C mice; details: 5 mg/kg intravenously at 4, 24 and 48 hours post-infection, kidneys harvested at 72 hours
Excerpt: as §2, §3
0.2 ml of 2% λ Carrageenan was administered intravenously to Balb/C mice 7 days prior to infection. Overnight grown log phase culture of Enterococcus faecium ATCC 47077 adjusted to approximately 10^9 cfu/ml, was injected intravenously to the mice at a volume of 0.2 ml. PM181104 solution, prepared in cremophor-ethanol formulation as described in example 14, was administered intravenously to the mice at 4 hours, 24 hours and 48 hours post-infection. At 72 hours post infection, the animals were sacrificed and kidneys were harvested to determine the bacterial load. […] Linezolid (manufactured by Glenmark Pharma Ltd; Batch no: K2005028) at 25 mg/kg and Vancomycin hydrochloride (manufactured by HiMedia; Catalogue no: RM217-500 mg; Lot no: 06-0350) at 150 mg/kg dose.

E. faecalis (FH-1) = test: MIC, Macro-broth dilution method; type: cell-based
Excerpt: as §1

Streptococcus hirae 55 = test: MIC, Macro-broth dilution method; type: cell-based
Excerpt: as §1

E. faecalis 4073H = test: MIC, Macro-broth dilution method; type: cell-based
Excerpt: as §1

Salmonella typhi Para A = test: MIC, Macro-broth dilution method; type: cell-based
Excerpt: as §1

E. coli SS = test: MIC, Macro-broth dilution method; type: cell-based
Excerpt: as §1

E. faecalis (uD.8b) = test: MIC, Macro-broth dilution method; type: cell-based
Excerpt: as §1

[4] = test system: Streptococcus durans 4939 (1) H; test: MIC, Macro-broth dilution method; type: cell-based
Excerpt: as §1

E. faecalis ATCC BAA 472 = test: MIC, Macro-broth dilution method; type: cell-based
Excerpt: as §1

Enterococci KEM-VRE27 = test: MIC, Macro-broth dilution method; type: cell-based
Excerpt: as §1

[5] = test system: Streptococcus equinus 02 D5 Gr1; test: MIC, Macro-broth dilution method; type: cell-based
Excerpt: as §1

[6] = test system: Citrobacter diversus 2046 E; test: MIC, Macro-broth dilution method; type: cell-based
Excerpt: as §1

Streptococcus durans = test: MIC, Macro-broth dilution method; type: cell-based
Excerpt: as §1

Enterococci KEM-VRE26 = test: MIC, Macro-broth dilution method; type: cell-based
Excerpt: as §1

Enterococci KEM-VRE28 = test: MIC, Macro-broth dilution method; type: cell-based
Excerpt: as §1

Enterococci KEM-VRE29 = test: MIC, Macro-broth dilution method; type: cell-based
Excerpt: as §1

Klebsiella pneumoniae = test: MIC, Macro-broth dilution method; type: cell-based
Excerpt: as §1

Pse. aeruginosa (M-35) = test: MIC, Macro-broth dilution method; type: cell-based
Excerpt: as §1

B. subtilis ATCC 6633 = test: MIC, Macro-broth dilution method; type: cell-based, Bacillus subtilis
Excerpt: as §1

B. subtilis = test: MIC, Macro-broth dilution method; type: cell-based, Bacillus subtilis
Excerpt: as §1

Q: How did the MIC (E. faecium (O2-D3IP1)) turn out when C=C(NC(=O)C(=C)NC(=O)C1CCCN1C(=O)c1nc(-c2ccc(-c3nc(C(=O)NC(=C)C(=O)NC(C)C(N)=O)cs3)c(-c3csc(C4Cc5nc(cs5)C(=O)NC(Cc5ccccc5)C5=NC(CS5)C(=O)NC(Cc5ccc(O)cc5)C(=O)N5CCCC5c5nc(cs5)C(=O)N4)n3)n2)oc1C)C(N)=O (stereo not drawn) [PM181104] was run?
A: Its MIC is 3.91 ng/mL (≈ 2.58 nM).

Q: And the MIC (E. faecium (VR-1))?
A: Its MIC is 7.81 ng/mL (≈ 5.15 nM).

Q: And the MIC (E. faecium D 18F)?
A: The MIC was 7.81 ng/mL (≈ 5.15 nM).

Q: What about the MIC (B. megaterium FH 1127) of the same compound?
A: The MIC was 7.81 ng/mL (≈ 5.15 nM).

Q: What about the PD100 [1] of the same compound?
A: The PD100 was 5 mg/kg.

Q: What about the MIC (B. cereus) of the same compound?
A: Its MIC is 3.91 ng/mL (≈ 2.58 nM).

Q: What about the “decrease in viable counts in thigh tissue” value (S. aureus E-710) of the same compound?
A: The value was “approximately 1 log”.

Q: What about the MIC [2] of the same compound?
A: The MIC was 31.25 ng/mL (≈ 20.6 nM).

Q: What about the MIC (E. faecalis, ATCC 51299) of the same compound?
A: The MIC was 15.63 ng/mL (≈ 10.3 nM).

Q: And the MIC (E. faecalis ATCC 51575)?
A: The MIC was 31.25 ng/mL (≈ 20.6 nM).

Q: What about the “decrease in bacterial count in kidneys” value [3] of the same compound?
A: The value was “approximately 1 log”.

Q: What about the MIC (E. faecalis (FH-1)) of the same compound?
A: Its MIC is 3.91 ng/mL (≈ 2.58 nM).

Q: What about the MIC (Streptococcus hirae 55) of the same compound?
A: Its MIC is 3.91 ng/mL (≈ 2.58 nM).

Q: And the MIC (E. faecalis 4073H)?
A: Its MIC is 7.81 ng/mL (≈ 5.15 nM).

Q: What about the MIC (Salmonella typhi Para A) of the same compound?
A: Its MIC is >1000 ng/mL.

Q: What about the MIC (E. coli SS) of the same compound?
A: The MIC was >1000 ng/mL.

Q: And the MIC (E. faecalis (uD.8b))?
A: Its MIC is 3.91 ng/mL (≈ 2.58 nM).

Q: What about the MIC [4] of the same compound?
A: The MIC was 7.81 ng/mL (≈ 5.15 nM).

Q: And the MIC (E. faecalis ATCC BAA 472)?
A: The MIC was 15.63 ng/mL (≈ 10.3 nM).

Q: And the MIC (Enterococci KEM-VRE27)?
A: The MIC was 3.91 ng/mL (≈ 2.58 nM).

Q: And the MIC [5]?
A: The MIC was 15.63 ng/mL (≈ 10.3 nM).

Q: And the MIC [6]?
A: Its MIC is >1000 ng/mL.

Q: What about the MIC (Streptococcus durans) of the same compound?
A: The MIC was 7.81 ng/mL (≈ 5.15 nM).

Q: And the MIC (Enterococci KEM-VRE26)?
A: Its MIC is 7.81 ng/mL (≈ 5.15 nM).

Q: What about the MIC (Enterococci KEM-VRE28) of the same compound?
A: Its MIC is 7.81 ng/mL (≈ 5.15 nM).

Q: And the MIC (Enterococci KEM-VRE29)?
A: The MIC was 3.91 ng/mL (≈ 2.58 nM).

Q: What about the MIC (Klebsiella pneumoniae) of the same compound?
A: The MIC was >1000 ng/mL.

Q: And the MIC (Pse. aeruginosa (M-35))?
A: Its MIC is >1000 ng/mL.

Q: What about the MIC (B. subtilis ATCC 6633) of the same compound?
A: Its MIC is 7.81 ng/mL (≈ 5.15 nM).

Q: What about the MIC (B. subtilis) of the same compound?
A: The MIC was 15.63 ng/mL (≈ 10.3 nM).
